The values below come from patent US10787430B2, “Hemoglobin modifier compounds and uses thereof” (FronThera U.S. Pharmaceuticals LLC, priority 2016, dated 2020).

Data set [1] deals with T1, hemoglobin (normal human adult blood) (Homo sapiens, UniProt P68871+P69905).
T1 construct: Normal whole blood was collected from adult healthy donors; from tissue; host or cells: normal human whole blood (red blood cells), adult healthy donors
As to the kind of experiment: Time-dependent oxygen equilibrium curve (OEC) studies in normal whole blood. Type of data set: cell-based. The conditions noted are these: 2 mM compound, 2% DMSO, normal human blood 20% hematocrit, 37° C., 1 h. The protocol: Materials: Normal whole blood was collected from adult healthy donors at the Virginia Commonwealth University after informed consent. The use of these human samples is in accordance with regulations of the IRB for Protection of Human Subjects. Compounds (50 mM-100 mM concentration in DMSO) were stored at 15° C. or room temperature until use.
The time-dependent OEC studies were conducted on normal human adult blood samples with hematocrit value of 20% in the absence or presence of effectors solubilized in DMSO at final drug and DMSO concentrations of 2 mM and 2%, respectively. […] The mixture was further incubated at 37° C. with shaking. […] After equilibration, the sample was removed by syringe and aspirated into a ABL 700 series table top automated blood gas analyzer (Radiometer America, Inc., Westlake, Ohio) to determine values of total hemoglobin (tHb), methemoglobin (metHb), hematocrit (Hct), pH, partial pressure of oxygen (pO2), and Hb oxygen saturation values (sO2). The measured values of sO2 and pO2 at each partial pressure of oxygen are then subjected to a non-linear regression analysis using the program Scientist (Micromath, Salt Lake City, Utah) with the following equation: […]
This equation was used to calculate P50 and Hill coefficient (N) values. Corresponding control experiments without the test compound (P50control) but containing DMSO were also performed. GBT440 was used as a positive control.

Data set [2] is described as follows: Pharmacokinetic study in rats (plasma and red blood cell). Format: in vivo. The conditions noted are these: male, Sprague-Dawley, rat, oral, 7.2 mg/kg. Here is the method: Rats (Sprague-Dawley, male, 220-280 g) were dosed with GBT-440 (HCl salt) and one of three compounds corresponding to Example 27, 29, and 38. The rats received oral (7.2 mpk) doses of the compound. Rats were fasted overnight before the experiments and provided with food four hours after dosing. The oral dosing formulations was prepared as follows: approximately 10 mg of compound was weighed precisely to an appropriate size of container, to which was added 2 mL of vehicle 0.5% methylcellulose in water and 8 μL 0.5% sodium dodecyl sulfate. The mixture was then transferred into a glass vial, and volume adjusted to appropriate volume with 0.5% methylcellulose to obtain a final concentration of 0.72 mg·mL^−1, and then vortexed and sonicated briefly.
Whole blood sample collection: Blood samples ([…]) were collected at pre-dose, 15, 30 min, 1, 2, 4, 8, 12 and 24 h via jugular vein into tubes and anticoagulated with 3.2% TSC (trisodium citrate). The proportion of anticoagulant and blood was 1:9 (v/v). The sampling time was recorded accordingly. The tubes were gently inverted several times to ensure mixing. Then 10 μL doses of whole blood sample was transferred to a new EP tube and duplicated in wet ice.
Plasma sample collection: The remaining whole blood was processed by centrifugation at 5,500 rpm for 10 min. The supernate was collected. All these whole blood and plasma samples were kept below −20° C. for 1 h prior to analysis.
Plasma sample preparation: An aliquot of 20 μL of sample was transferred to sample treatment tube (1.5 mL EP tube), and then 100 μL ACN (0.5% FA) containing Verapamil, 5 ng·mL^−1 and Glibenclamide, 50 ng·mL^−1 for protein precipitation was added. The mixture was vortexed for 30 min, and then centrifuged at 13000 rpm for 5 min at room temperature. After that, 70 μL of supernatant was transferred to a 96-Well Plate, to which 70 μL of water added and then vortexed for 10 min at room temperature. An aliquot of 10 μL of this mixture was analyzied using LC-MS/MS.
Whole blood sample preparation: An aliquot of 10 μL of sample was transferred to sample treatment tube (1.5 mL EP tube), and then 500 μL ACN (0.5% FA) containing Verapamil, 5 ng·mL^−1 and Glibenclamide, 50 ng·mL^−1 for protein precipitation was added. The mixture was vortexed for 30 min, and then centrifuged at 13000 rpm for 5 min at room temperature. After that, 70 μL of supernatant was transferred to a 96-Well Plate, to which 70 μL of water was added and then vortexed for 10 min at room temperature. An aliquot of 10 μL of this mixture was analyzed using LC-MS/MS.
Plasma and red blood cell concentration-time data were processed by linear regression analysis. All pharmacokinetic parameters were calculated using non-compartment model of Pharsight Phoenix 6.3.
Red blood cell concentrations were calculated according to the method below: Mass balance equation: Cb·VB=Cp·Vp+CBC·VBC Where, Cb=Concentration of whole blood; VB=Volume of whole blood; Cp=Concentration of plasma; Vp=Volume of plasma; CBC=Concentration of blood cell; VBC=Volume of blood cell. VBC=H·VB, where H is the hematocrit number. Vp=(1−H)·VB

A short description of data set [3]: Solubility in JP1, JP2 and FaSSIF buffers. The conditions noted are these: 25 °C, thermodynamic from solid, room temperature. Format: physicochemical. The protocol:
Conditions: 1. JP1 buffer (84 mM HCl, 34.22 mM NaCl, pH 1.2); 2. JP2 buffer (50 mM phosphate buffer at pH 6.8); 3. FaSSIF buffer, pH 6.5 (Preparation: In about 0.9 L of purified water dissolve 0.420 g of NaOH (pellets), 4.470 g of NaH2PO4 (dihydrate), 6.186 g of NaCl; Adjust the pH to 6.5 with Sodium hydroxide 1N or Hydrochloric acid 1N, to make up to volume (1 L) with purified water at room temperature; Add 0.224 g of SIF Powder Original to about 0.5 L of pH 6.5 blank buffer and stir until powder is completely dissolved; Let stand for 2 hour. FaSSIF buffer is now ready to use.
Procedures: 1. accurately weighed about 2 mg test compounds and controls in whatman vials, then transferred 450 μL buffer in to the vials; 2. Filter pistons of miniuniprep vials were placed and compressed to the position of the liquid level to allow for contact. Vortexed for 2 minutes; 3. […] Miniunipreps were compressed to prepare the filtrates for injection into HPLC system; 5. Diluted the filtrates with buffer by a factor of 50 fold to make diluents; 6. Determined the test compound concentration of the diluents and filtrates using HPLC-UV.

The mark [4] stands for this setting: red blood cells, red blood cell (calculated by mass balance from whole blood and plasma), read-out: AUC0-24 h RBC.
Setting [5] is: red blood cells, red blood cell (calculated by mass balance from whole blood and plasma), read-out: Cmax RBC.
Where [6] appears, read: red blood cells, red blood cell, read-out: T1/2 RBC (converted).
The mark [7] stands for this setting: plasma, read-out: AUC0-24 h Plasma.
Where [8] appears, read: plasma, read-out: T1/2 Plasma (converted).
Where [9] appears, read: aqueous buffer, JP2 buffer (50 mM phosphate) pH 6.8, 24 hr, read-out: JP2 Solubility.
Setting [10] is: simulated gastric fluid, JP1 buffer pH 1.2, 24 hr, read-out: JP1 Solubility.
Where [11] appears, read: FaSSIF buffer pH 6.5, 24 hr, read-out: FaSSIF Solubility.

Counter-ions that a name gives are not always drawn. Like-named read-outs stand apart in the source and are kept apart here.

T1 sequence (P69905 2-142 limits assumed): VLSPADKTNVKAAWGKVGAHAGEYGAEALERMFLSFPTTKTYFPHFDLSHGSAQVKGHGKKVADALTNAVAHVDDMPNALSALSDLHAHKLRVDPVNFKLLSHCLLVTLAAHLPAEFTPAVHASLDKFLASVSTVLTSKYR
T1 sequence (P68871 2-147 limits assumed): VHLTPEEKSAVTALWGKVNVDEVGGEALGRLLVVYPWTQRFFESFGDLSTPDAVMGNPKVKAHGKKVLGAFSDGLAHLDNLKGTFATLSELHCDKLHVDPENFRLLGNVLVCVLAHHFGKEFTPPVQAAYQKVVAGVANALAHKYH

Turning to `CC(C)n1nccc1-c1ncccc1COc1ccc2c(c1C=O)CCS2(=O)=O` [Example 21, 5-((2-(1-isopropyl-1H-pyrazol-5-yl)pyridin-3-yl)methoxy)-2,3-dihydrobenzo[b]thiophene-4-carbaldehyde 1,1-dioxide], in data set [1], the “delta p50” value is on record as −72%.
Regarding `CC(C)n1nccc1-c1ncccc1CSc1cccc(O)c1C=O` [Example 23, 2-hydroxy-6-(((2-(1-isopropyl-1H-pyrazol-5-yl)pyridin-3-yl)methyl)thio)benzaldehyde], in data set [1], the “delta p50” value is listed as −62%.
Still for that read-out and setting: the same measure for `[2H]C(=O)c1c(O)cccc1OCc1cccnc1-c1ccnn1C(C)C` [Example 24]: −47%.
One may read the Cmax as the highest concentration seen after dosing. What is called solubility is how much of the substance goes into solution per volume. With `Cl.[2H]C([2H])(Oc1cc(F)cc(O)c1C=O)c1cccnc1-c1ccnn1C(C)C` [Example 27, 4-fluoro-2-hydroxy-6-((2-(1-isopropyl-1H-pyrazol-5-yl)pyridin-3-yl)methoxy-d2)benzaldehyde hydrochloric acid], the AUC(0-t) in data set [2] (setting [4]) is 566 µg·h/mL; in data set [2] (setting [7]), 10.7 µg·h/mL. Also, the Cmax in data set [2] (setting [5]) is 50.3 µg/mL; in data set [2] (plasma, read-out: Cmax Plasma), 0.742 µg/mL. The half-life is 26 h in data set [2] (setting [6]) and 18 h in data set [2] (setting [8]). In addition, the figures for the solubility at 24 h in data set [3] (setting [9]), in data set [3] (setting [10]) and in data set [3] (setting [11]) were 8.16 µg/mL, 623 µg/mL and 35.7 µg/mL, respectively.
Consider `Cl.[2H]C([2H])(Oc1cccc(O)c1C=O)c1cccnc1-n1ccnc1C(C)C` [Example 29, 2-hydroxy-6-((2-(2-isopropyl-1H-imidazol-1-yl)pyridin-3-yl)methoxy-d2)benzaldehyde hydrochloric acid], for which the AUC(0-t) is 12000 µg·h/mL in data set [2] (setting [4]) and 42.6 µg·h/mL in data set [2] (setting [7]). Besides, the Cmax in data set [2] (setting [5]) is 1240 µg/mL; in data set [2] (plasma, read-out: Cmax Plasma), 4.01 µg/mL. Moreover, the half-life in data set [2] (setting [6]) was 10 h; in data set [2] (setting [8]), 12 h. In addition, the solubility at 24 h in data set [3] (setting [9]) was 74.4 µg/mL; in data set [3] (setting [10]) it was greater than 4440 µg/mL; in data set [3] (setting [11]) it was 591 µg/mL.
Regarding `[2H]C([2H])([2H])C(n1nccc1-c1ncccc1COc1cccc(O)c1C=O)C([2H])([2H])[2H]` [Example 30, 2-hydroxy-6-((2-(1-(propan-2-yl-1,1,1,3,3,3-d6)-1H-pyrazol-5-yl)pyridin-3-yl)methoxy)benzaldehyde], in data set [1], the “delta p50” value is on record as −85%.
As to `CC(C)n1nccc1-c1nn(C)c(=O)cc1COc1cccc(O)c1C=O` [Example 59, 2-hydroxy-6-((3-(1-isopropyl-1H-pyrazol-5-yl)-1-methyl-6-oxo-1,6-dihydropyridazin-4-yl)methoxy)benzaldehyde], the “delta p50” value in data set [1] was −54%.
Turning to `CC(C)n1nccc1-c1cn(C)c(=O)cc1COc1cccc(O)c1C=O` [Example 60, 2-hydroxy-6-((5-(1-isopropyl-1H-pyrazol-5-yl)-1-methyl-2-oxo-1,2-dihydropyridin-4-yl)methoxy)benzaldehyde], the “delta p50” value in data set [1] is on record as −69%.
In the case of `CC(C)n1nccc1-c1nccc2c1C(Oc1cccc(O)c1C=O)CO2` (stereo not drawn) [Example 61g, 2-hydroxy-6-((4-(1-isopropyl-1H-pyrazol-5-yl)-2,3-dihydrofuro[3,2-c]pyridin-3-yl)oxy)benzaldehyde], in data set [1], the “delta p50” value is listed as −59%.
In the case of `CC(C)n1nccc1-c1nccc2c1[C@@H](Oc1cccc(O)c1C=O)CO2` [Example 62a, (R)-2-hydroxy-6-((4-(1-isopropyl-1H-pyrazol-5-yl)-2,3-dihydrofuro[3,2-c]pyridin-3-yl)oxy)benzaldehyde], the “delta p50” value in data set [1] is −63%.
For `CC(C)n1nccc1-c1nccc2c1[C@H](Oc1cccc(O)c1C=O)CO2` [Example 62b, (S)-2-hydroxy-6-((4-(1-isopropyl-1H-pyrazol-5-yl)-2,3-dihydrofuro[3,2-c]pyridin-3-yl)oxy)benzaldehyde], the “delta p50” value in data set [1] is −64%.
`CC(C)n1nccc1-c1ncccc1COc1cccc(O)c1C=O` [GBT-440 (HCl salt), reference compound]: the AUC(0-t) in data set [2] (setting [4]) was 3440 µg·h/mL; in data set [2] (setting [7]), 22.8 µg·h/mL. Moreover, the highest concentration (Cmax) in data set [2] (setting [5]) was 216 µg/mL; in data set [2] (plasma, read-out: Cmax Plasma), 2.15 µg/mL. The half-life in data set [2] (setting [6]) was 17 h; in data set [2] (setting [8]), 19 h. Further, the solubility at 24 h in data set [3] (setting [9]) was 28 µg/mL; in data set [3] (setting [10]), 986 µg/mL; in data set [3] (setting [11]), 95.7 µg/mL.
